The results in this text go back to ChEMBL document CHEMBL4699662, “Identification and structure-activity relationship studies of small molecule inhibitors of the human cathepsin D” (Bioorg Med Chem, 2021).

By inhibition is commonly meant how much of the control response was suppressed. Read a high inhibition as a response far below the control. For orientation: microsomal CLint means the capacity of the preparation to metabolise the compound, expressed as a volume cleared per time. Read a high microsomal CLint as rapid turnover.

Data set [1] concerns the target Cathepsin D (Homo sapiens) (UniProt P07339). The conditions noted are these: dose 182.0 nM, time 130.0 min.
Data set [2] is described as follows: in vitro. The conditions noted are these: human, liver microsomes.
Data set [3] is described as follows: in vitro. Particulars: mouse, liver microsomes. A general note: Liver microsomes are vesicles of endoplasmic reticulum, rich in cytochrome P450 enzymes.

Sequence of Cathepsin D (Homo sapiens) (P07339 65-162 limits assumed): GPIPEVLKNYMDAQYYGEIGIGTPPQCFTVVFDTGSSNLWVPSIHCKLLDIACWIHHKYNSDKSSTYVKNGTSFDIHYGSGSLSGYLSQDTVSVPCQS
Sequence of Cathepsin D (Homo sapiens) (P07339 169-412 limits assumed): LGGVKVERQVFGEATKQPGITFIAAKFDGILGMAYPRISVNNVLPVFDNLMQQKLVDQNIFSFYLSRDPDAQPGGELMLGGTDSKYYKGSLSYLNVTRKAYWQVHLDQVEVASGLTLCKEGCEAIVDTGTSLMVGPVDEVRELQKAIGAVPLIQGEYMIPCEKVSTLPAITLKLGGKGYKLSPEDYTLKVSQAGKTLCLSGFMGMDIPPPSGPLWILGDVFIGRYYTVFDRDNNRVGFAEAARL

`CC(C)CC(=O)N[C@H](C(=O)N[C@H](C(=O)N[C@@H](CC(C)C)[C@@H](O)CC(=O)N[C@@H](C)C(=O)N[C@@H](CC(C)C)[C@@H](O)CC(=O)O)C(C)C)C(C)C` had an inhibition in data set [1] of 98.7%.

Turning to `CNS(=O)(=O)c1ccc(C)c(NC(=O)[C@@H](CC2CCCCC2)NC(=N)NC(=O)Cc2ccc(OC)c(OC)c2)c1`, the microsomal CLint at 0.5 h, 1 µM in “in vitro [2]” and in “in vitro [3]” was 177 µL/min/mg each time.

Regarding `COc1ccc(CC(=O)NC(=N)N[C@@H](C(=O)Nc2cc(S(N)(=O)=O)ccc2C)C2CC2)cc1OC`, the microsomal CLint at 0.5 h, 1 µM in “in vitro [2]” is 40 µL/min/mg; in “in vitro [3]”, 100 µL/min/mg.

Consider `COc1ccc(CC(=O)NC(=N)N[C@H](C(=O)Nc2cc(S(N)(=O)=O)ccc2C)C2CCCC2)cc1OC`, for which the microsomal CLint at 0.5 h, 1 µM came to 174 µL/min/mg in “in vitro [2]” and 179 µL/min/mg in the data set “in vitro [3]”.

As to `COc1ccc(CC(=O)NC(=N)N[C@H](CC2CCCCC2)C(=O)Nc2cc(S(=O)(=O)N(C(C)C)C(C)C)ccc2C)cc1OC`, the microsomal CLint at 0.5 h, 1 µM in “in vitro [2]” and in “in vitro [3]” was 259 µL/min/mg in each case.

`COc1ccc(CC(=O)NC(=N)N[C@H](CC2CCCCC2)C(=O)Nc2cc(N(S(C)(=O)=O)S(C)(=O)=O)ccc2C)cc1OC`: the microsomal CLint at 0.5 h, 1 µM in “in vitro [2]” stood at 186 µL/min/mg; in “in vitro [3]”, 165 µL/min/mg.

With `COc1ccc(CC(=O)NC(=N)N[C@H](CC2CC2)C(=O)Nc2cc(S(N)(=O)=O)ccc2C)cc1OC`, the figures for the microsomal CLint at 0.5 h, 1 µM in the data set “in vitro [2]” and in “in vitro [3]” were 108 µL/min/mg and 229 µL/min/mg, respectively.

For the compound `CNS(=O)(=O)c1ccc(C)c(NC(=O)[C@@H](CC(C)C)NC(=N)NC(=O)Cc2ccc(OC)c(OC)c2)c1`, the values for the microsomal CLint at 0.5 h, 1 µM in the data set “in vitro [2]” and in the data set “in vitro [3]” were 239 µL/min/mg and 188 µL/min/mg, respectively.

Turning to `Cc1ccc(S(=O)(=O)N(C)C)cc1NC(=O)[C@@H](CC1CCCCC1)NC(=N)NC(=O)c1ccc2c(c1)OCCO2`, the results for the microsomal CLint at 0.5 h, 1 µM in “in vitro [2]” and in “in vitro [3]” were 253 µL/min/mg and 272 µL/min/mg, respectively.

With `COc1ccc(CC(=O)NC(=N)N[C@H](CC2CCCCC2)C(=O)Nc2cc(S(=O)(=O)NC(C)C)ccc2C)cc1OC`, the figures for the microsomal CLint at 0.5 h, 1 µM in the data set “in vitro [2]” and in the data set “in vitro [3]” were 277 µL/min/mg and 240 µL/min/mg, respectively.

For `Cc1ccc(S(=O)(=O)N(C)C)cc1NC(=O)[C@@H](CC1CCCCC1)NC(=N)NC(=O)Cc1cccc(C(F)(F)F)c1`, the figures for the microsomal CLint at 0.5 h, 1 µM in “in vitro [2]” and in “in vitro [3]” were 238 µL/min/mg and 270 µL/min/mg, respectively.

On to `Cc1ccc(S(=O)(=O)N(C)C)cc1NC(=O)[C@@H](CC1CCCCC1)NC(=N)NC(=O)Cc1cccc(C#N)c1`, for which the microsomal CLint at 0.5 h, 1 µM is 287 µL/min/mg in “in vitro [2]” and 250 µL/min/mg in “in vitro [3]”.

In the case of `CNS(=O)(=O)c1ccc(C)c(NC(=O)[C@H](NC(=N)NC(=O)Cc2ccc(OC)c(OC)c2)C(C)C)c1`, the microsomal CLint at 0.5 h, 1 µM in “in vitro [2]” turned out to be 179 µL/min/mg; in “in vitro [3]”, 104 µL/min/mg.

Consider `COc1ccc(CC(=O)NC(=N)N[C@H](CC2CCCCC2)C(=O)Nc2cc(S(=O)(=O)N(C)C)ccc2C)cc1OC`, for which the microsomal CLint at 0.5 h, 1 µM amounted to 204 µL/min/mg in “in vitro [2]” and 226 µL/min/mg in the data set “in vitro [3]”.

With `COc1ccc(CC(=O)NC(=N)N[C@H](C)C(=O)Nc2cc(S(N)(=O)=O)ccc2C)cc1OC`, the microsomal CLint at 0.5 h, 1 µM in the data set “in vitro [2]” was 27.8 µL/min/mg; in “in vitro [3]”, 50.6 µL/min/mg.

Regarding `COc1ccc(CC(=O)NC(=N)N[C@@H](C(=O)Nc2cc(S(N)(=O)=O)ccc2C)C(C)C)cc1OC`, the microsomal CLint at 0.5 h, 1 µM came to 64.3 µL/min/mg in “in vitro [2]” and 174 µL/min/mg in “in vitro [3]”.
